The subject of one data set is granzyme B. In words: Granzyme B protein in supernatants by ELISA. Type of data set: cell-based, human. The protocol: FIGS. 3A-3E depict the results of a study showing that downregulation of Cbl-b enhances the cytotoxicity of primary human NK cells. (FIGS. 3A and 3B) Primary human NK cells transduced with Cbl-b siRNA or Scr siRNA for 24 h were stimulated without (FIG. 3A) or with (FIG. 3B) a low concentration of IL-15 (2 ng/ml) for 16 h, then co-cultured with ^51Cr labeled Molm-13, MV4-11 or EOL-1 leukemia cell lines for 4 h, followed by quantification of specific tumor cell lysis. Each experiment was repeated with 6 different normal donors. (FIG. 3C) qRT-PCR was performed to quantify the granzyme B (GZMB) mRNA levels (n=8 donors) in siRNA- and Scr siRNA-transduced primary human NK cells incubated without or with IL-15 (10 ng/ml) for 16 h. (FIG. 3D) The concentration of the granzyme B protein in the supernatants of Cbl-b siRNA- and Scr siRNA-transduced primary human NK cells incubated without (688.1 pg/ml vs 525.4 pg/ml; P=0.0232) or with IL-15 (10 ng/ml) for 24 h (8789 pg/ml vs 3397 pg/ml; P=0.0232) was measured by ELISA (n=8 donors). (FIG. 3E) The level of granzyme B protein in Cbl-b siRNA- and Scr siRNA-transduced primary human NK cells incubated without or with IL-15 (10 ng/ml) for 24 h was measured by immunoblot analysis. The data are representative of three experiments. Scr-scrambled; *P<0.05, **P<0.01, ***P<0.001, ****P<0.0001 by One-way or Two-way ANOVA; ns, not significant. Data presented as mean±SEM.
ELISA. Primary NK cells were plated in an equivalent number of 100,000 cells/well in a 96-well plate in RPMI and supplemented with 10% FBS. Cells were treated with recombinant human IL-15 (10 ng/ml) for 24 h, and cell-free culture supernatant was collected and frozen at −80° C. for later use. IFN-γ concentration was measured by ELISA using anti-IFN-γ antibody from Thermo Fisher Scientific. Granzyme B concentration was measured by ELISA kit purchased from R&D.
Both groups were next incubated without or with IL-15 and co-cultured with ^51Cr labeled MV4-11, Molm-13, or EOL-1 leukemia cell lines, followed by assessment of specific lysis measured after 4 h of co-culture.
In general terms: ELISA stands for enzyme-linked immunosorbent assay.

The next data set concerns Mertk. The data set can be described thus: Mertk phosphorylation by immunoblot in siRNA-transduced NK cells. Type of data set: cell-based, human. To be noted: vs Scr siRNA. As for the experimental part:
FIGS. 5A-5D depict the results of a study showing that Cbl-b interacts with and regulates phosphorylation of Mertk in primary human NK cells. (FIG. 5A) Representative intracellular flow cytometric analysis of the TAM family receptors expression in primary human NK cells. Summarized data are shown from 6 donors. IgG1 is the isotype for Tyro3 and Axl, while IgG2 for Mertk. (FIG. 5B) The level of Mertk phosphorylation and Cbl-b in Cbl-b siRNA- or Scr siRNA-transduced primary human NK was measured by immunoblot analysis. Data presented are representative of five independent experiments. […] Data presented are representative of 4 donors performed in a similar fashion and are summarized in the panel below the representative flow dot plots. […]
FIGS. 10A-10B depict immunoblotting analysis of the phosphorylation level of Mertk (p-Mertk). (FIG. 10A) The level of Mertk phosphorylation and Cbl-b in Cbl-b siRNA- or Scr siRNA-transduced primary human NK cells was measured by immunoblot analysis. […] (FIG. 10B) The level of total Mertk expression in Cbl-b siRNA- or Scr siRNA-transduced primary human NK was measured by immunoblot analysis.
Immunoblotting. […] Densitometric analysis was performed to quantify intensity of gel bands with Image J (National Institutes of Health). […]
Background: A western blot detects proteins with antibodies after separation by electrophoresis.

The results in this text go back to patent publication US20240299542A1, “NATURAL KILLER CELLS ENGINEERED TO REDUCE OR ELIMINATE CBL-B AND USES THEREOF” (City of Hope, priority 2021, published 2024).

“Cbl-b siRNA: Cbl-b-specific Accell siRNA (Dharmacon), SEQ ID NO:1, CCUUCAUGUUCAGAUGGUU (Accell modified siRNA, pattern not given here)”: the “concentration of granzyme B protein in supernatants” value was 8789 pg/mL in the data set on granzyme B (with IL-15 (10 ng/ml) 24 h, n=8 donors) and 688.1 pg/mL in the data set on granzyme B (without IL-15, n=8 donors). In addition, the “phosphorylation level of Mertk (p-Mertk)” value in the data set on Mertk is given as “significantly increased”.
